Holding throughout (test): TGFα-shedding assay-based GPCR screening with chimeric Gα subunit proteins
Format in all cases: cell-based

For test [1], the target named is T1, 348 GPCRs (Homo sapiens, UniProt O75473).
T1 construct: expressed in transfected cells; host or cells: HEK293A
T1 sequence (O75473 22-907): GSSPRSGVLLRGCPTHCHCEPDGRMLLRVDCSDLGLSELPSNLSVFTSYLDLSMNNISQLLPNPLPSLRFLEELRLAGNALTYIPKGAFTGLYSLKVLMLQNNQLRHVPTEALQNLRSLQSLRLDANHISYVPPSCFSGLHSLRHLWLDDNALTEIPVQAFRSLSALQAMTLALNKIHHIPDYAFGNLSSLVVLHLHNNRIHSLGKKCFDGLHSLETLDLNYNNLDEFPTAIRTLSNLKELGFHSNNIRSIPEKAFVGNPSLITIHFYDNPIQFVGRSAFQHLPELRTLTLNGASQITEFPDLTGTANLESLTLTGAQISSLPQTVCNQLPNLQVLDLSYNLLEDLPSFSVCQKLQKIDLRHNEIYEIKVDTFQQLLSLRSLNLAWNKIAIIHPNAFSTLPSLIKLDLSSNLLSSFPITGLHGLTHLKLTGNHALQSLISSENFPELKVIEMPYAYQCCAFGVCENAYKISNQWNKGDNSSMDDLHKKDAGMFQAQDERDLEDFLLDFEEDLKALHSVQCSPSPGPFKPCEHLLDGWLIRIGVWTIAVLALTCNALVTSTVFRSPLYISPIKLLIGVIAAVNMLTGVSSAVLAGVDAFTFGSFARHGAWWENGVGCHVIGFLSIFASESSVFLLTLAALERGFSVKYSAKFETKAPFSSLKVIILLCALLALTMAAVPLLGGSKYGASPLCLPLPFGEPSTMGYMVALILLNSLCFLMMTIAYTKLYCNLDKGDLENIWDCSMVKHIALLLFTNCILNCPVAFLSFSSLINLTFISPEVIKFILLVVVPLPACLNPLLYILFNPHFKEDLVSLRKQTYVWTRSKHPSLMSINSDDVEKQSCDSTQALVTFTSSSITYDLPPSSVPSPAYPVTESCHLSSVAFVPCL
The settings on record: 10µM, Favipiravir 100μM.

Test [2] addresses T2, 348 GPCRs (Homo sapiens, UniProt Q7Z601).
T2 construct: expressed in transfected cells; host or cells: HEK293A
T2 sequence (Q7Z601 1-462): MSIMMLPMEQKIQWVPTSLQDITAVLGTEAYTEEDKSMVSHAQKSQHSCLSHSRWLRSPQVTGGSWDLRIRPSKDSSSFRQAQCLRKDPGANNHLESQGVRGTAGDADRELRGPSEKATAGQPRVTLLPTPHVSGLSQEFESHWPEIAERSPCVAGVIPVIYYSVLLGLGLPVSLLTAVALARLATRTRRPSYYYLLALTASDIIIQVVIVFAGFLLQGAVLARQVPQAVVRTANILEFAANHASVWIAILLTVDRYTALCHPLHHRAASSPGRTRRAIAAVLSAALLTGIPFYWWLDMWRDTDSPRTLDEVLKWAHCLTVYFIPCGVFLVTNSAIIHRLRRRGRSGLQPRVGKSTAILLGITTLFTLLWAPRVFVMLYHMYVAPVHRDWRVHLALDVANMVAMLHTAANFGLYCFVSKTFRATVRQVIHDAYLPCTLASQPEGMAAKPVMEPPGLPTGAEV
The settings on record: 10µM, Favipiravir 100μM.

In test [3] the target is T3, 348 GPCRs (Homo sapiens, UniProt Q8TDS7).
T3 construct: expressed in transfected cells; host or cells: HEK293A
T3 sequence (Q8TDS7 whole entry): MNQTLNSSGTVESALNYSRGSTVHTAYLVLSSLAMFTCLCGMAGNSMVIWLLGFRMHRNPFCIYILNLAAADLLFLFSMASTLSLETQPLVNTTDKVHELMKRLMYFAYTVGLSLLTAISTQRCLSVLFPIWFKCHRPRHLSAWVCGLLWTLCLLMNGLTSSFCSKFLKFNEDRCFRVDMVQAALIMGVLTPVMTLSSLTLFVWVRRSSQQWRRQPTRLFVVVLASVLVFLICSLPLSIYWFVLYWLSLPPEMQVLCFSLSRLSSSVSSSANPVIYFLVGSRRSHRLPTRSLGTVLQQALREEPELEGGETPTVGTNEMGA
Particulars: 10µM, Favipiravir 100μM.

The target of test [4] is 348 GPCRs (Homo sapiens, UniProt P41143). The settings on record: read-out: % GPCR activation compared to TPA, OPRD1 (opioid receptor, delta 1 (DOR)); 10µM, Favipiravir 100μM.
348 GPCRs (Homo sapiens, UniProt P41143), sequence (P41143 whole entry): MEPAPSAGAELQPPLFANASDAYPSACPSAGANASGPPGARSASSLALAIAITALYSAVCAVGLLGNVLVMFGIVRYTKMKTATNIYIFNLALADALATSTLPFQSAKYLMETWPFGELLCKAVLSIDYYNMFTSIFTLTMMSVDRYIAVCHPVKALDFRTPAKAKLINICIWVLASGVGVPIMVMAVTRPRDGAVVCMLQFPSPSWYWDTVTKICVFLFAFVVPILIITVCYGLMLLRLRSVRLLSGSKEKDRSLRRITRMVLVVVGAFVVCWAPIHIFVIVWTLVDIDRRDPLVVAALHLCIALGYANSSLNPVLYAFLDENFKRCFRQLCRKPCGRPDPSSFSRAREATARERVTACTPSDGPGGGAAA
Test [5] deals with T4, 348 GPCRs (Homo sapiens, UniProt P48960).
T4 construct: expressed in transfected cells; host or cells: HEK293A
T4 sequence (P48960 21-835): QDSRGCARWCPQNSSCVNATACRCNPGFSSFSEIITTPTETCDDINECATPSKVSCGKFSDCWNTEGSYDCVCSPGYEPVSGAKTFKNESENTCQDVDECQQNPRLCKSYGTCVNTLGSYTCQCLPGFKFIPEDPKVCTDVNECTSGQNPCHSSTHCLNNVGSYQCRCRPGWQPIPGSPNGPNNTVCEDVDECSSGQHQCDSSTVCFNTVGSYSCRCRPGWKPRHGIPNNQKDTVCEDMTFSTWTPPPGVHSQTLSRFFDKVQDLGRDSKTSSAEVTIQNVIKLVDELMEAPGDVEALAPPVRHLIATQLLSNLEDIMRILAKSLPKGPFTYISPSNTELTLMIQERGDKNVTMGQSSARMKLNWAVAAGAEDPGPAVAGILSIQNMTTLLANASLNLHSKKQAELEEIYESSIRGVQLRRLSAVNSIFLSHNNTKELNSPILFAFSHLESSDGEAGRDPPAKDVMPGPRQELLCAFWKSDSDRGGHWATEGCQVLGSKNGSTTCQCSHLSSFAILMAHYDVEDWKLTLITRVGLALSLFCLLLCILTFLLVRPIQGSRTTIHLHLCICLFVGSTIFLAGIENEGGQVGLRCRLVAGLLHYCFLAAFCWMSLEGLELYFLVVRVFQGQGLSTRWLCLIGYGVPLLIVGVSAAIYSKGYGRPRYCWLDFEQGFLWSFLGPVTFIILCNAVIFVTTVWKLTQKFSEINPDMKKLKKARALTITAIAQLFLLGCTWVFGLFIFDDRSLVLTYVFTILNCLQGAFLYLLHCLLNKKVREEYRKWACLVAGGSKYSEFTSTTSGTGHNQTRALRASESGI

Test [6] deals with T5, 348 GPCRs (Homo sapiens, UniProt Q96CH1).
T5 construct: expressed in transfected cells; host or cells: HEK293A
T5 sequence (Q96CH1 whole entry): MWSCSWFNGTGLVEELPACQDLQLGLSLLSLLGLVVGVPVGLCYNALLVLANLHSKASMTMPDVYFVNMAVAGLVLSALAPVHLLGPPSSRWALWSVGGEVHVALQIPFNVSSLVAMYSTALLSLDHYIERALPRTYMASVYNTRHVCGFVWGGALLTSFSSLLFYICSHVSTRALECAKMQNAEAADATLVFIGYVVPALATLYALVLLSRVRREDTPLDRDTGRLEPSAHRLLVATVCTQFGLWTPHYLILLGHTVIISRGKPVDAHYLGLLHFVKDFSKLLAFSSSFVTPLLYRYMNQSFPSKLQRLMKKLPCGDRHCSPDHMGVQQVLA
The settings on record: 10µM, Favipiravir 100μM.

Test [7] has as its target T6, 348 GPCRs (Homo sapiens, UniProt P25106).
T6 construct: expressed in transfected cells; host or cells: HEK293A

[8] abbreviates: LGR5 (leucine-rich repeat containing G protein-coupled receptor 5), read-out: % GPCR activation compared to TPA.
[9] abbreviates: GPR142 (G protein-coupled receptor 142), read-out: % GPCR activation compared to TPA.
Where [10] appears, read: MRGPRD (MAS-related GPR, member D), read-out: % GPCR activation compared to TPA.
The mark [11] stands for this setting: GPR146 (G protein-coupled receptor 146), read-out: % GPCR activation compared to TPA.
[12] abbreviates: read-out: % GPCR activation compared to TPA, LGR5 (leucine-rich repeat containing G protein-coupled receptor 5).
[13] abbreviates: read-out: % GPCR activation compared to TPA, GPR142 (G protein-coupled receptor 142).
Setting [14] is: read-out: % GPCR activation compared to TPA, MRGPRD (MAS-related GPR, member D).
[15] abbreviates: read-out: % GPCR activation compared to TPA, GPCR CD97 (adhesion G protein-coupled receptor E5).
[16] abbreviates: read-out: % GPCR activation compared to TPA, GPR146 (G protein-coupled receptor 146).
[17] abbreviates: read-out: % GPCR activation compared to TPA, GPCR CXCR7 (chemokine (C-X-C motif) receptor 7).
The mark [18] stands for this setting: GPCR CD97 (adhesion G protein-coupled receptor E5), read-out: % GPCR activation compared to TPA.
Setting [19] is: GPCR CXCR7 (chemokine (C-X-C motif) receptor 7), read-out: % GPCR activation compared to TPA.

Like-named read-outs stand apart in the source and are kept apart here.

T6 sequence (P25106 whole entry): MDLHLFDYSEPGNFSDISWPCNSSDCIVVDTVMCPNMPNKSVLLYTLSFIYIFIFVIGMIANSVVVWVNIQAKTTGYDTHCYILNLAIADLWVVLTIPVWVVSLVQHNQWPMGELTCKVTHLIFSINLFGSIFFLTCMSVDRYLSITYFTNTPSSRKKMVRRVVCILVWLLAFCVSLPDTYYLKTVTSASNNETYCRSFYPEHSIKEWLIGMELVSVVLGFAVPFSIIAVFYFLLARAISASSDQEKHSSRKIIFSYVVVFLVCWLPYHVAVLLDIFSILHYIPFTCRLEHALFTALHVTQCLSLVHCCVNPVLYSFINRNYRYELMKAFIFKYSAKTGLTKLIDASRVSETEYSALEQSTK

Consider `NC(=O)c1nc(F)cnc1O` [favipiravir, 6-fluoro-3-hydroxy-2-pyrazinecarboxamide], for which the activation at 100 µM is -2.31% on 348 GPCRs [1] (setting [8]); -0.257% on 348 GPCRs [2] (setting [9]); -0.473% at 348 GPCRs [3] (setting [10]); -3.28% on 348 GPCRs [4]; -3.34% on 348 GPCRs [5] (GPCR CD97 (adhesion G protein-coupled receptor E5), 100μM, read-out: % GPCR activation compared to TPA); 0.0656% on 348 GPCRs [6] (setting [11]). The activation at 100 µM at 348 GPCRs [7] (GPCR CXCR7 (chemokine (C-X-C motif) receptor 7), 100μM, read-out: % GPCR activation compared to TPA) is -1.9%.

With `CC(C)OC(=O)[C@H](C)N[P@](=O)(OC[C@H]1O[C@@H](n2ccc(=O)[nH]c2=O)[C@](C)(F)[C@@H]1O)Oc1ccccc1` [sofosbuvir], the activation at 100 µM at 348 GPCRs [1] (setting [12]) is -3.95%; on 348 GPCRs [2] (setting [13]), 3.77%; at 348 GPCRs [3] (setting [14]), 4.12%; on 348 GPCRs [4] it was -2.64%; on 348 GPCRs [6] (setting [16]), -6.46%. In addition, the activation at 10 µM on 348 GPCRs [5] (setting [15]) was -1.88%; at 348 GPCRs [7] (setting [17]) it was -0.832%.

Regarding `CCC(CC)COC(=O)[C@H](C)N[P@](=O)(OC[C@H]1O[C@@](C#N)(c2ccc3c(N)ncnn23)[C@H](O)[C@@H]1O)Oc1ccccc1` [remdesivir], the activation at 100 µM on 348 GPCRs [1] (setting [12]) is 12.4%; at 348 GPCRs [2] (setting [13]) it was 1.22%; on 348 GPCRs [3] (setting [14]), 0.905%; on 348 GPCRs [4] it was -3.05%; on 348 GPCRs [6] (setting [16]), 1.36%. Further, the activation at 10 µM at 348 GPCRs [5] (setting [15]) amounted to 1.2%; on 348 GPCRs [7] (setting [17]), 0.898%.

Turning to `N#C[C@@]1(c2ccc3c(N)ncnn23)O[C@H](CO)[C@@H](O)[C@H]1O` [GS441524], the activation at 100 µM on 348 GPCRs [1] (setting [8]) is -2.87%; at 348 GPCRs [2] (setting [9]), 0.3%; at 348 GPCRs [3] (setting [10]), -4.53%; at 348 GPCRs [4], -2.68%; at 348 GPCRs [6] (setting [11]), 0.00864%. For the same compound, the activation at 10 µM was -3.9% on 348 GPCRs [5] (setting [18]) and 1.43% at 348 GPCRs [7] (setting [19]).

`CC(C)C(=O)OC[C@H]1O[C@@H](n2ccc(NO)nc2=O)[C@H](O)[C@@H]1O` [molnupiravir]: the activation at 100 µM at 348 GPCRs [1] (setting [8]) was -3.75%; at 348 GPCRs [2] (setting [9]) it was 2.63%; at 348 GPCRs [3] (setting [10]), -3.12%; at 348 GPCRs [4] it was -1.93%; on 348 GPCRs [6] (setting [11]), -4.56%. In addition, the activation at 10 µM on 348 GPCRs [5] (setting [18]) is -0.34%; on 348 GPCRs [7] (setting [19]) it was -1.56%.

These data come from publication PMC10175918 (Communications Biology, 2023).
